Experimental data taken from US10160762B2, “6-alkyl dihydropyrazolopyrimidinone compounds as PDE2 inhibitors” (Merck Sharp & Dohme Corp., priority 2015, dated 2018).

Biological target: T1, human PDE2A1 (Homo sapiens, UniProt O00408)
T1 construct: GST; purchased BPS Bioscience (San Diego, Calif.) 60020; host or cells: insect cells
Experiment: IMAP FP PDE assay, human PDE2A1
Type: biochemical
Conditions: Lab B; read-out: Human PDE2 Ki (nM) Lab B
Method in brief: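 GST-tagged human PDE2A1 from insect cells; substrate 50 nM FAM-cAMP containing 1000 nM cGMP in Tris pH 7.2/MgCl2/DTT buffer, enzyme giving 20% conversion. 60 min at room temperature, IMAP binding reagent, fluorescence polarization read. Apparent Ki from FP readings using apparent KM 10,000 nM; ten-point 3-fold titrations.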

T1 sequence (O00408 1-920 isoform O00408-2): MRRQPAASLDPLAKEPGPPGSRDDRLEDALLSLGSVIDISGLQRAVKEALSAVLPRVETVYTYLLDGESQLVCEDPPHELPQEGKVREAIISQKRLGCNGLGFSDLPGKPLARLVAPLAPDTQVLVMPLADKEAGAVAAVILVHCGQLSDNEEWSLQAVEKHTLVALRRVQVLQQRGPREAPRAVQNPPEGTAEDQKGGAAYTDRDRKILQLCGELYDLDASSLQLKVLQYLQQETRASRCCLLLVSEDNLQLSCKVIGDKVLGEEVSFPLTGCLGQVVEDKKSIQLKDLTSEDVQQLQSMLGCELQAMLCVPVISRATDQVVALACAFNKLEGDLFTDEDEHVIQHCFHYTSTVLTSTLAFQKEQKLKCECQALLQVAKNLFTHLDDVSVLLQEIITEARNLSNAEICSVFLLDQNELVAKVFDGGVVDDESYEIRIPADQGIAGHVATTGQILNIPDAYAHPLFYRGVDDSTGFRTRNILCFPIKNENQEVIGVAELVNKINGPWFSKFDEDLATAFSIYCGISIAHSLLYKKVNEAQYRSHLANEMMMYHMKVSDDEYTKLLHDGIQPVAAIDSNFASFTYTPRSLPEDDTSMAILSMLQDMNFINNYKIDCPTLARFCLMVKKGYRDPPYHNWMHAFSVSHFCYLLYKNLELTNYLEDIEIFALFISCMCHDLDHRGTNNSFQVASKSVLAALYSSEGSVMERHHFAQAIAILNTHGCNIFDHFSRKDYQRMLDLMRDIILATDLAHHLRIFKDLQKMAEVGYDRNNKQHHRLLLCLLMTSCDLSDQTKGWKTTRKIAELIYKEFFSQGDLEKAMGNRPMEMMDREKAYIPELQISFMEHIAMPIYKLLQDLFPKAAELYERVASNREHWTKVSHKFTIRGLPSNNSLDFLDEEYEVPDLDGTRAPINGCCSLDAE

SMILES	Ki [nM]
Cc1nc2c(c(CF)nn2C(c2ccc(C(F)(F)F)c(F)c2)C2CC2)c(=O)[nH]1 (single isomer, unassigned) [Example 227, (S)- or (R)-1-(Cyclopropyl(3-fluoro-4-(trifluoromethyl)phenyl)methyl)-3-(fluoromethyl)-6-methyl-1,5-dihydro-4H-pyrazolo[3,4-d]pyrimidin-4-one]	32
CC(=O)NCc1nn(C(C)c2ccc(C(F)(F)F)cc2)c2nc(C)[nH]c(=O)c12 (single isomer, unassigned) [Example 277]	~1300
Cc1nc2c(c(-c3ccn[nH]3)nn2C(C)c2ccc(C(F)(F)F)cc2)c(=O)[nH]1 (single isomer, unassigned) [Example 236]	76
Cc1nc2c(c(-c3cn[nH]c3)nn2C(C)c2ccc(C(F)(F)F)cc2)c(=O)[nH]1 (single isomer, unassigned) [Example 237]	2.5
Cc1nc2c(c(C3CCCO3)nn2C(C)c2ccc(C(F)(F)F)cc2)c(=O)[nH]1 (single isomer, unassigned) [Example 71, (R, S)- or (R, R)- or (S, R)- or (S, S)-6-Methyl-3-(-tetrahydrofuran-2-yl)-1-(-l-(4-(trifluoromethyl)phenyl)ethyl)-1H-pyrazolo[3,4-d]pyrimidin-4(5H)-one]	111
Cc1nc2c(c(CO)nn2C(C)c2ccc(CC(F)(F)F)cc2)c(=O)[nH]1 (single isomer, unassigned) [Example 123, (S) or (R)-3-(Hydroxymethyl)-6-methyl-1-(1-(4-(2,2,2-trifluoroethyl)phenyl)ethyl)-1H-pyrazolo[3,4-d]pyrimidin-4(5H)-one]	2.6
Cc1nc2c(c(CO)nn2C(c2ccc(C(F)(F)F)c(F)c2)C2(C)CC2)c(=O)[nH]1 (single isomer, unassigned) [Example 14, (R)- or (S)-1-((3-Fluoro-4-(trifluoromethyl)phenyl)(1-methylcyclopropyl)methyl)-3-(hydroxymethyl)-6-methyl-1H-pyrazolo[3,4-d]pyrimidin-4(5H)-one]	2.4
Cc1nc2c(c(CC(C)O)nn2C(C)c2ccc(C(F)(F)F)cc2)c(=O)[nH]1 (single isomer, unassigned) [Example 245]	72
Cc1nc2c(c(CO)nn2C(C)c2ccc(C(F)(F)F)nn2)c(=O)[nH]1 (single isomer, unassigned) [Example 146, (S)- or (R)-3-(Hydroxymethyl)-6-methyl-1-(1-(6-(trifluoromethyl)pyridazin-3-yl)ethyl)-1H-pyrazolo[3,4-d]pyrimidin-4(5H)-one]	58
Cc1nc2c(c(CO)nn2C(C)c2ccc(C(F)(F)F)cn2)c(=O)[nH]1 (single isomer, unassigned) [Example 152, (S)- or (R)-3-(Hydroxymethyl)-6-methyl-1-(1-(5-(trifluoromethyl)pyridin-2-yl)ethyl)-1H-pyrazolo[3,4-d]pyrimidin-4(5H)-one]	1180
Cc1nc2c(c(CO)nn2C(C)c2ccc(C(F)(F)C(F)(F)F)cc2)c(=O)[nH]1 (single isomer, unassigned) [Example 99, (S)- or (R)-3-(Hydroxymethyl)-6-methyl-1-(1-(4-(perfluoroethyl)phenyl)ethyl)-1H-pyrazolo[3,4-d]pyrimidin-4(5H)-one]	4.5
COCc1nc2c(c(C(F)F)nn2C(C)c2ccc(C(F)(F)F)cc2)c(=O)[nH]1 (single isomer, unassigned) [Example 187, (R)- or (S)-3-(Difluoromethyl)-6-(methoxymethyl)-1-{1-[4-(trifluoromethyl)phenyl]ethyl}-1,5-dihydro-4H-pyrazolo-[3,4-d]pyrimidin-4-one]	231
Cc1nc2c(c(C(F)F)nn2C(C)c2ccc(OC(F)(F)F)cc2)c(=O)[nH]1 (single isomer, unassigned) [Example 177, (R)- or (S)-3-(Difluoromethyl)-6-methyl-1-(1-(4-(trifluoromethoxy)phenyl)ethyl)-1H-pyrazolo[3,4-d]pyrimidin-4(5H)-one]	61
CC(c1ccc(S(F)(F)(F)(F)F)cc1)n1nc(CO)c2c(=O)[nH]c(C3CC3)nc21 (single isomer, unassigned) [Example 316, (S)- or (R)-6-Cyclopropyl-3-(hydroxymethyl)-1-{1-[4-(pentafluoro-sulfanyl)-phenyl]ethyl}-1,5-dihydro-4H-pyrazolo[3,4-d]pyrimidin-4-one]	72
CC(c1ccc(C(F)(F)F)cc1)n1nc(CO)c2c(=O)[nH]c(CC3CC3)nc21 (single isomer, unassigned) [Example 310, (S)- or (R)-6-(Cyclopropyl-methyl)-3-(hydroxymethyl)-1-(1-(4-(trifluoromethyl)phenyl)ethyl)-1,5-dihydro-4H-pyrazolo[3,4-d]pyrimidin-4-one]	11
Cc1nc2c(c(C(F)F)nn2C(C)c2ccc(S(F)(F)(F)(F)F)cc2)c(=O)[nH]1 (single isomer, unassigned) [Example 162]	1.8

SMILES	Ki [nM]
Cc1nc2c(c(CO)nn2C(C)c2ccc(C(C)(F)F)cc2)c(=O)[nH]1 (single isomer, unassigned) [Example 117, (S)- or (R)-1-(1-(4-(1,1-Difluoroethyl)phenyl)ethyl)-3-(hydroxymethyl)-6-methyl-1H-pyrazolo[3,4-d]pyrimidin-4(5H)-one]	1.1
Cc1nc2c(c(CO)nn2C(C)c2ccc(C(F)F)cc2)c(=O)[nH]1 (single isomer, unassigned) [Example 110, (R)- or (S)-1-(1-(4-(Difluoromethyl)phenyl)ethyl)-3-(hydroxymethyl)-6-methyl-1H-pyrazolo[3,4-d]pyrimidin-4(5H)-one]	1070
Cc1nc2c(c(CO)nn2C(C)c2cnn(CC(F)(F)F)c2)c(=O)[nH]1 (single isomer, unassigned) [Example 150, (S)- or (R)-3-(Hydroxymethyl)-6-methyl-1-(1-(1-(2,2,2-trifluoroethyl)-1H-pyrazol-4-yl)ethyl)-1H-pyrazolo[3,4-d]pyrimidin-4(5H)-one]	158
Cc1nc2c(c(CO)nn2C(C)c2ccc(C(F)(F)F)c(C)c2)c(=O)[nH]1 (single isomer, unassigned) [Example 106, (R)- or (S)-3-(Hydroxymethyl)-6-methyl-1-(1-(3-methyl-4-(trifluoromethyl)phenyl)ethyl)-1H-pyrazolo[3,4-d]pyrimidin-4(5H)-one]	633
Cc1nc2c(c(CC(O)C(F)(F)F)nn2C(C)c2ccc(C(F)(F)F)cc2)c(=O)[nH]1 (single isomer, unassigned) [Example 242]	434
CC(=O)c1nn([C@@H](C)c2ccc(C(F)(F)F)cc2)c2nc(C)[nH]c(=O)c12 [Example 322, (S)-3-Acetyl-6-methyl-1-(1-(4-(trifluoromethyl)phenyl)ethyl)-1,5-dihydro-4H-pyrazolo[3,4-d]pyrimidin-4-one]	42
Cc1nc2c(c(CO)nn2C(C)c2ccc(CC(F)(F)F)cc2)c(=O)[nH]1 (single isomer, unassigned) [Example 122, (R)- or (S)-3-(Hydroxymethyl)-6-methyl-1-(1-(4-(2,2,2-trifluoroethyl)phenyl)ethyl)-1H-pyrazolo[3,4-d]pyrimidin-4(5H)-one]	194
Cc1nc2c(c(C3CCCO3)nn2C(C)c2ccc(C(F)(F)F)cc2)c(=O)[nH]1 (single isomer, unassigned) [Example 70, (R, R)- or (R, S) or (S, R) or (S, S)-6-Methyl-3-(-tetrahydrofuran-(trifluoromethyl)phenyl)ethyl)-1H-pyrazolo[3,4-d]pyrimidin-4(5H)-one]	159
Cc1nc2c(c(C(F)F)nn2C(C)c2ccc(OC(F)(F)F)c(F)c2)c(=O)[nH]1 (single isomer, unassigned) [Example 169, (R)- or (S)-3-(Difluoromethyl)-1-(1-(3-fluoro-4-(trifluoromethoxy)phenyl)ethyl)-6-methyl-1H-pyrazolo [3,4-d]pyrimidin-4(5H)-one]	18
Cc1nc2c(c(CO)nn2C(C)c2ccc(Cl)s2)c(=O)[nH]1 (single isomer, unassigned) [Example 153, (R)- or (S)-1-(1-(5-Chlorothiophen-2-yl)ethyl)-3-(hydroxymethyl)-6-methyl-1H-pyrazolo[3,4-d]pyrimidin-4(5H)-one]	> 2960
Cc1nc2c(c(CO)nn2C(C)c2ccc(C(F)(F)F)cc2C)c(=O)[nH]1 (single isomer, unassigned) [Example 109, (S)- or (R)-3-(Hydroxymethyl)-6-methyl-1-(1-(2-methyl-4-(trifluoromethyl)phenyl)ethyl)-1H-pyrazolo[3,4-d]pyrimidin-4(5H)-one]	1.9
Cc1nc2c(c(C(F)F)nn2C(c2ccc(C(F)(F)F)cc2)C(C)C)c(=O)[nH]1 (single isomer, unassigned) [Example 171, (R)- or (S)-3-(Difluoromethyl)-6-methyl-1-(2-methyl-1-(4-(trifluoromethyl)phenyl)propyl)-1H-pyrazolo[3,4-d] pyrimidin-4(5H)-one]	43
Cc1nc2c(c(CC(C)O)nn2C(C)c2ccc(C(F)(F)F)cc2)c(=O)[nH]1 (single isomer, unassigned) [Example 243]	808
Cc1nc2c(c(CO)nn2C(C)c2ccc(OC(F)F)c(F)c2)c(=O)[nH]1 (single isomer, unassigned) [Example 112, (R)- or (S)-1-(1-(4-(Difluoromethoxy)-3-fluorophenyl)ethyl)-3-(hydroxymethyl)-6-methyl-1H-pyrazolo[3,4-d]pyrimidin-4(5H)-one]	88
Cc1nc2c(c(-c3ccco3)nn2C(C)c2ccc(C(F)(F)F)cc2)c(=O)[nH]1 (single isomer, unassigned) [Example 74, (R)- or (S)-3-(Furan-2-yl)-6-methyl-1-(1-(4-(trifluoromethyl)phenyl)ethyl)-1H-pyrazolo[3,4-d]pyrimidin-4(5H)-one]	258
